Tests used:
[1] = tested on: fluconazole-resistant C. albicans; experiment: In vitro assay for candidacidal activity of hLF-derived peptides and/or fluconazole (co-incubation, CFU count); format: cell-based; settings: 1×10^6 CFU/ml, 2 h at 37°C; noncandidacidal peptide concentrations; fluconazole 100-200 µg/ml; Fig. 1
Procedure: • Figure 1 - Candidacidal activity of combinations of noncandidacidal concentrations of hLF(1-11), an N-terminal peptide of human lactoferrin and 200 µg/ml fluconazole (closed bars), 150 µg/ml fluconazole (black dotted bars), 100 µg/ml fluconazole (white dotted bars) or without this triazole (open bars). […] In short, 1×10^6 CFU fluconazole-resistant C. albicans/ml were incubated with combinations of hLF(1-11) and fluconazole for 2 h at 37°C and then the number of surviving Candida was determined microbiologically. […] In short, 1×10^6 CFU Candida/ml were preincubated for 5 min at 37°C with (8 µM) hLF(1-11) or (200 µg/ml) fluconazole, washed and then incubated for 2 h at 37°C with (200 µg/ml) fluconazole or (8 µM) hLF(1-11), respectively. As controls, Candida cells were incubated for 2 h at 37°C with (8 µM) hLF(1-11), (200 µg/ml) fluconazole, the combination of (8 µM) hLF(1-11) and (200 µg/ml) fluconazole or no agent. Results are means plus SD of at least three independent experiments.
Assay for candidacidal activity of hLF-derived peptides and fluconazole. […] After a 2 h incubation at 37°C with hLF peptides and/or fluconazole the number of viable blastoconidia was determined by plating serial dilutions of each sample on Sabouraud agar. Results are expressed as colony forming units (CFU) per ml.

[2] = tested on: Fluconazole-resistant C. albicans strain Y01-19; experiment: E-test for fluconazole resistance; format: cell-based; settings: Candida albicans
Procedure: Fluconazole. Fluconazole (Pfizer Inc. New York, NY) was dissolved at a concentration of 1 mg/ml of dimethylsulfoxide (Fluka Chemie GmbH, Sigma-Aldrich Chemie BV, Zwijndrecht, The Netherlands) and stored at -20°C until use. From this stock solution appropriate concentrations were prepared in 10 mM of sodium phosphate buffer (pH 7.4), further referred to as NaPB. Source of C. albicans strain. Fluconazole-resistant C. albicans strain Y01-19 was purchased from Pfizer (Groton, Conn.). […] Fluconazole resistance (M.I.C.>256 µg/ml) was evaluated using the E-test (Oxoid Unipath Ltd., Basingstoke, UK). Yeasts were cultured overnight in Sabouraud broth (Oxoid) at 37°C and sub-cultured for 2,5 h on a rotary wheel at 37°C.

SMILES: OC(Cn1cncn1)(Cn1cncn1)c1ccc(F)cc1F [Fluconazole]
- candidacidal activity [1]: without effect
- MIC [2]: > 256 µg/mL

Source: patent publication EP1360961A1, “Use of antimicrobial peptides for potentiating the activity of antimicrobial agents” (AM-Pharma B.V., priority 2002, dated 2003)
